# Values quoted from earlier work as cited in article PMC12304285 (British Journal of Cancer, 2025).
# Test system: patients with advanced solid tumours
# Design: method as in PMID 33230210
# Settings: single-agent trial; cited from earlier work
compound,measurement,value
COc1ccc([C@@H](O)c2cc(-c3ncnc4cc(N5CCOCC5)ccc34)c(F)cc2Cl)nn1 [peposertib],anaemia or myelosuppressive TEAEs,Neither anaemia nor myelosuppressive TEAEs were reported
